Data reported in patent publication EP4803087A1, “METHOD FOR PRODUCING LIPOSOME COMPOSITION, AND LIPOSOME COMPOSITION” (FUJIFILM Corporation, priority 2023, dated 2025).
Counter-ions that a name gives are not always drawn.

Tests used:
[1] = Dissolution of gemcitabine hydrochloride in the loading tank at production scale (visual confirmation); assay type: physicochemical; set-up: time after which complete dissolution could not be confirmed: dose or concentration left out as unconfirmed; conditions: jacket 56°C
Experimental: In order to prevent the powder of gemcitabine hydrochloride having high pharmacological activity from being exposed to the operator, the following work was performed in an isolator that could completely isolate the work from the outside. […] In this case, the extension tube was closed by a pinch valve. 1,452 g of water for injection at room temperature was put into the plastic bag to wash the burette, and gemcitabine hydrochloride was dispersed. A tube extended from a sealed tank (hereinafter, a loading tank) made of SUS316L with a temperature control jacket installed outside the isolator and the plastic bag was connected, and the gemcitabine hydrochloride aqueous dispersion liquid was put into the loading tank. A solution consisting of 17.0 g of disodium hydrogen phosphate dihydrate, 2.7 g of sodium dihydrogen phosphate dihydrate, and 1,106.6 g of water for injection was put into the loading tank from the plastic bag to wash out the gemcitabine hydrochloride remaining in the plastic bag, the extension tube, and the like. By cutting the extension tube while pinching and crimping the extension tube, the gemcitabine hydrochloride of the highly pharmaceutically active substance could be safely put into the loading tank without scattering from the isolator or the loading tank. […]

[2] = Measurement of saturated solubility of gemcitabine hydrochloride (HPLC, 272 nm); assay type: physicochemical; conditions: 55 °C, aqueous buffer, thermodynamic from solid, phosphate buffer and water
Experimental: 0.95 g of disodium hydrogen phosphate dihydrate, 0.15 g of sodium dihydrogen phosphate dihydrate, and 51.1 g of water were put into a 100 mL plastic container and dissolved to produce a buffer containing no sodium chloride.
3.4 g of gemcitabine hydrochloride was put into 5.8 g of this buffer and 8.1 g of water, and the mixture was stirred at 55°C for 2 hours. 5 mL of this supernatant was collected, and the filtrate obtained by filtration was used as a sample solution.
0.95 g of disodium hydrogen phosphate dihydrate, 0.15 g of sodium dihydrogen phosphate dihydrate, 5.4 g of sodium chloride, and 67.7 g of water were put into a 100 mL plastic container and dissolved to produce a buffer containing sodium chloride.
3.4 g of gemcitabine hydrochloride was put into 7.4 g of this buffer and 8.1 g of water, and the mixture was stirred at 55°C for 2 hours. 5 mL of this supernatant was collected, and the filtrate obtained by filtration was used as a sample solution.
This sample solution was quantified by HPLC at a detection wavelength of 272 nm, and the saturated solubility of 90 mg/mL in the presence of sodium chloride was obtained.

## Nc1ccn([C@@H]2O[C@H](CO)[C@@H](O)C2(F)F)c(=O)n1 [gemcitabine hydrochloride, Gemcitabine hydrochloride]
[1]; Comparative Example 1: sodium chloride present, 200 rpm, downward flow, sodium hydroxide added
  time after which complete dissolution could not be confirmed: > 1 h
[1]; Example 1: no sodium chloride, 305 g scale, liquid 54°C, 400 rpm, upward flow
  time after the temperature rise until gemcitabine hydrochloride was completely dissolved: about 15 minutes
[2]; in the absence of sodium chloride, stirred at 55°C for 2 hours (imitating Example 1)
  solubility at 2 h: 156 mg/mL
[2]; in the presence of sodium chloride, stirred at 55°C for 2 hours (imitating Comparative Example 1)
  solubility at 2 h: 90 mg/mL
